In patent US10232009B1, “Peptide for promoting wound healing, its composition and method of using the same” (PRO SUNFUN BIOTECH RESEARCH AND DEVELOPMENT CO., LTD., priority 2017, dated 2019):
Entries after “also recorded” stand apart in the source; their conditions may differ. Ends that are not written are not given here.

Legend:
Format in all cases: cell-based, Human
HaCaT cells = test: Transwell migration assay, HaCaT keratinocyte cells; details: 50 μg/ml peptide, 24-hour culture, P<0.05
Procedure: (§1) Human keratinocyte HaCaT and skin fibroblast CCD-966SK cells were cultured in Dulbecco's Modified Eagle Medium (DMEM) containing 10% (v/v) FBS and 1% (v/v) antibiotics in 5% CO2 at 37° C.
(§2) HaCaT cells (5×10^4) or CCD-966SK cells (5×10^3) in 0.25 ml serum-free DMEM were seeded into the upper chamber with an 8-μm pore size membrane (Corning, USA) and 0.5 ml serum free DMEM with or without 50 μg/ml Peptide NO. 9 were loaded to the lower chamber in 24-well culture plate. After 24 hours incubation, cells were fixed and stained with 0.5% (w/v) crystal violet (Sigma) containing 20% (v/v) methanol. The number of migrated cells from 5 random fields was counted under the microscope. Results obtained were analyzed by student's t-test and graphed as mean±SD.

CCD966SK cells = test: MTT assay, viability of CCD966SK cells; details: 50 μg/ml peptide
Procedure: as §1
(§3) HaCaT keratinocyte cells (3×10^3, each cell line) in 100 μl complete DMEM were seeded in 96-well plates with or without 50 μg/ml Peptide NO. 9, respectively. Ten microliters of 5 mg/ml 3-(4,5-dimethyl-2-thiazolyl)-2,5-diphenyl-2H-tetrazolium bromide solution (MTT; Sigma) was added to each well for the indicated times and incubated at 37° C. for 3 hours, after which 100 μl 10% SDS in 0.01 N HCl was added to dissolve the MTT formazan crystals. The resultant optical density was measured spectrophotometrically at dual wavelengths, 550 and 630 nm.

HaCaT keratinocyte cells = test: MTT assay, viability of HaCaT keratinocyte cells; details: 50 μg/ml peptide
Procedure: as §1, §3

CCD-966SK cells = test: Transwell migration assay, CCD-966SK fibroblast cells; details: 50 μg/ml peptide, 24-hour culture, P<0.01
Procedure: as §1, §2

Substance: HTSTEAK [Peptide NO. 9]
- HaCaT keratinocyte cell migration (HaCaT cells): enhanced HaCaT keratinocyte cell migration; also recorded: significant efficacy in enhancing HaCaT keratinocyte cell migration; also recorded: effect in enhancement of keratinocyte cell migration of HaCaT cells
- viability of CCD966SK cells (CCD966SK cells; 24 hours): did not significantly affect viability of CCD966SK cells
- viability of CCD966SK cells (CCD966SK cells; 48 hours): did not significantly affect viability of CCD966SK cells
- viability of CCD966SK cells (CCD966SK cells; 72 hours): did not significantly affect viability of CCD966SK cells
- viability of HaCaT keratinocyte cells (HaCaT keratinocyte cells; 24-hour culture): did not significantly affect viability of HaCaT cells
- viability of HaCaT keratinocyte cells (HaCaT keratinocyte cells; 48-hour culture): did not significantly affect viability of HaCaT cells
- viability of HaCaT keratinocyte cells (HaCaT keratinocyte cells; 72-hour culture): did not significantly affect viability of HaCaT cells
- CCD966SK fibroblast cell migration (CCD-966SK cells): enhanced CCD966SK fibroblast cell migration; also recorded: significant efficacy in enhancing HaCaT CCD966SK fibroblast cell migration
